In patent US8642590B2, “Alkylcyclohexylethers of dihydrotetraazabenzoazulenes” (Hoffmann-La Roche Inc., priority 2008, dated 2014):
Counter-ions that a name gives are not always drawn.

Target: T1, human V1a receptor (Homo sapiens, UniProt P37288)
T1 construct: expressed in transfected cells; host or cells: HEK293 cells, transiently transfected; cell membranes prepared
Test: human V1a receptor binding study (3H-Vasopressin, SPA beads, HEK293 membranes)
Conditions: membranes of HEK293 cells transiently transfected with human V1a receptor; 3H-Vasopressin; Ki calculated using the Cheng-Prussoff equation; read-out: pKi (hV1a) (converted)
Description: The human V1a receptor was cloned by RT-PCR from total human liver RNA. The coding sequence was subcloned in an expression vector after sequencing to confirm the identity of the amplified sequence. […] Cell membranes were prepared from HEK293 cells transiently transfected with the expression vector and grown in 20 liter fermenters with the following protocol.
50 g of cells are resuspended in 30 ml freshly prepared ice cold Lysis buffer (50 mM HEPES, 1 mM EDTA, 10 mM magnesium dichloride adjusted to pH=7.4+complete cocktail of protease inhibitor (Roche Diagnostics)). Homogenized with Polytron for 1 min and sonicated on ice for 2×2 minutes at 80% intensity (Vibracell sonicator). The preparation is centrifuged 20 min at 500 g at 4° C., the pellet is discarded and the supernatant centrifuged 1 hour at 43,000 g at 4° C. (19,000 rpm). The pellet is resuspended in 12.5 ml Lysis buffer+12.5 ml Sucrose 20% and homogenized using a Polytron for 1-2 min. The protein concentration is determined by the Bradford method and aliquots are stored at −80° C. until use. For binding studies 60 mg Yttrium silicate SPA beads (Amersham) are mixed with an aliquot of membrane in binding buffer (50 mM Tris, 120 mM sodium chloride, 5 mM potassium chloride, 2 mM Calcium dichloride, 10 mM magnesium dichloride) for 15 minutes with mixing. 50 μl of bead/membrane mixture is then added to each well of a 96 well plate, followed by 50 μl of 4 nM 3H-Vasopressin (American Radiolabeled Chemicals). For total binding measurement 100 μl of binding buffer are added to the respective wells, for non-specific binding 100 μl of 8.4 mM cold vasopressin and for compound testing 100 μl of a serial dilution of each compound in 2% dimethyl sulfoxide. The plate is incubated 1 h at room temperature, centrifuged 1 min at 1000 g and counted on a Packard Top-Count. Non-specific binding counts are subtracted from each well and data is normalized to the maximum specific binding set at 100%. To calculate an IC 50 the curve is fitted using a non-linear regression model (XLfit) and the Ki is calculated using the Cheng-Prussoff equation.

T1 sequence (P37288 whole entry): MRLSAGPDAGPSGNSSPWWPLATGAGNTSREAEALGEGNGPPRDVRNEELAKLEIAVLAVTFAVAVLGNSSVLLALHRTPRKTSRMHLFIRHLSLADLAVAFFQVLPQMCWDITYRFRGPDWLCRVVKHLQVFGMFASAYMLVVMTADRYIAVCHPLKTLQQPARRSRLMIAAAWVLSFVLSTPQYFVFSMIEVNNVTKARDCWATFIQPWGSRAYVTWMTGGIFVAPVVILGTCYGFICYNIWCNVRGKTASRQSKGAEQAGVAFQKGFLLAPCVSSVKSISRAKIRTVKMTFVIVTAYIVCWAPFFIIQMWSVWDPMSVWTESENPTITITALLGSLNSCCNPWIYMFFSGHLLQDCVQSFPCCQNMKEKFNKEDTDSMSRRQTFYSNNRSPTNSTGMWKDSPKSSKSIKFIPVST

Compound	Ki [nM]
CCC(C)O[C@H]1CC[C@H](c2nnc3n2-c2ccc(Cl)cc2CN(C(=O)OC(C)(C)C)C3)CC1 (mixture of isomers) [Example 25, (RS)-trans-1-(4-sec-Butoxy-cyclohexyl)-8-chloro-4H,6H-2,3,5,10b-tetraaza-benzo[e]azulene-5-carboxylic acid tert-butyl ester]	3.72
CCC(C)O[C@H]1CC[C@H](c2nnc3n2-c2ccc(Cl)cc2CNC3)CC1 (mixture of isomers) [Example 26, (RS)-trans-1-(4-sec-Butoxy-cyclohexyl)-8-chloro-5,6-dihydro-4H-2,3,5,10b-tetraaza-benzo[e]azulene hydrochloride]	12.6
CCC(C)O[C@H]1CC[C@H](c2nnc3n2-c2ccc(Cl)cc2CN(C)C3)CC1 (mixture of isomers) [Example 27, (RS)-trans-1-(4-sec-Butoxy-cyclohexyl)-8-chloro-5-methyl-5,6-dihydro-4H-2,3,5,10b-tetraaza-benzo[e]azulene]	2.09
COCC(C)O[C@H]1CC[C@H](c2nnc3n2-c2ccc(Cl)cc2CN(C(=O)OC(C)(C)C)C3)CC1 (mixture of isomers) [Example 45, (RS)-trans-8-Chloro-1-[4-(2-methoxy-1-methyl-ethoxy)-cyclohexyl]-4H,6H-2,3,5,10b-tetraaza-benzo[e]azulene-5-carboxylic acid tert-butyl ester]	3.72
COCC(C)O[C@H]1CC[C@H](c2nnc3n2-c2ccc(Cl)cc2CNC3)CC1 (mixture of isomers) [Example 46, (RS)-trans-8-Chloro-1-[4-(2-methoxy-1-methyl-ethoxy)-cyclohexyl]-5,6-dihydro-4H-2,3,5,10b-tetraaza-benzo[e]azulene hydrochloride]	117
COCC(C)O[C@H]1CC[C@H](c2nnc3n2-c2ccc(Cl)cc2CN(C)C3)CC1 (mixture of isomers) [Example 47, (RS)-trans-8-Chloro-1-[4-(2-methoxy-1-methyl-ethoxy)-cyclohexyl]-5-methyl-5,6-dihydro-4H-2,3,5,10b-tetraaza-benzo[e]azulene]	11.2
CC(CO)O[C@H]1CC[C@H](c2nnc3n2-c2ccc(Cl)cc2CN(C(=O)OC(C)(C)C)C3)CC1 (mixture of isomers) [Example 50, (RS)-trans-8-Chloro-1-[4-(2-hydroxy-1-methyl-ethoxy)-cyclohexyl]-4H,6H-2,3,5,10b-tetraaza-benzo[e]azulene-5-carboxylic acid tert-butyl ester]	2.69
CC(CO)O[C@H]1CC[C@H](c2nnc3n2-c2ccc(Cl)cc2CNC3)CC1 (mixture of isomers) [Example 51, (RS)-trans-2-[4-(8-Chloro-5,6-dihydro-4H-2,3,5,10b-tetraaza-benzo[e]azulen-1-yl)-cyclohexyloxy]-propan-1-ol hydrochloride]	186
CC(CO)O[C@H]1CC[C@H](c2nnc3n2-c2ccc(Cl)cc2CN(C)C3)CC1 (mixture of isomers) [Example 52, (RS)-trans-2-[4-(8-Chloro-5-methyl-5,6-dihydro-4H-2,3,5,10b-tetraaza-benzo[e]azulen-1-yl)-cyclohexyloxy]-propan-1-ol]	19.1
CC(CF)O[C@H]1CC[C@H](c2nnc3n2-c2ccc(Cl)cc2CN(C)C3)CC1 (mixture of isomers) [Example 53, (RS)-trans-8-Chloro-1-[4-(2-fluoro-1-methyl-ethoxy)-cyclohexyl]-5-methyl-5,6-dihydro-4H-2,3,5,10b-tetraaza-benzo[e]azulene]	2.82
CC(CC(F)(F)F)O[C@H]1CC[C@H](c2nnc3n2-c2ccc(Cl)cc2CN(C(=O)OC(C)(C)C)C3)CC1 (mixture of isomers) [Example 54, (RS)-trans-8-Chloro-1-[4-(3,3,3-trifluoro-1-methyl-propoxy)-cyclohexyl]-4H,6H-2,3,5,10b-tetraaza-benzo[e]azulene-5-carboxylic acid tert-butyl ester]	8.51
CC(CC(F)(F)F)O[C@H]1CC[C@H](c2nnc3n2-c2ccc(Cl)cc2CNC3)CC1 (mixture of isomers) [Example 55, (RS)-trans-8-Chloro-1-[4-(3,3,3-trifluoro-1-methyl-propoxy)-cyclohexyl]-5,6-dihydro-4H-2,3,5,10b-tetraaza-benzo[e]azulene hydrochloride]	75.9
CC(CC(F)(F)F)O[C@H]1CC[C@H](c2nnc3n2-c2ccc(Cl)cc2CN(C)C3)CC1 (mixture of isomers) [Example 56, (RS)-trans-8-Chloro-5-methyl-1-[4-(3,3,3-trifluoro-1-methyl-propoxy)-cyclohexyl]-5,6-dihydro-4H-2,3,5,10b-tetraaza-benzo[e]azulene]	6.76
CC[C@H](C)O[C@H]1CC[C@H](c2nnc3n2-c2ccc(Cl)cc2CN(C)C3)CC1 (single isomer, unassigned) [Example 28, (+)-trans-1-(4-sec-Butoxy-cyclohexyl)-8-chloro-5-methyl-5,6-dihydro-4H-2,3,5,10b-tetraaza-benzo[e]azulene]	1.58
CC[C@@H](C)O[C@H]1CC[C@H](c2nnc3n2-c2ccc(Cl)cc2CN(C)C3)CC1 (single isomer, unassigned) [Example 29, (−)-trans-1-(4-sec-Butoxy-cyclohexyl)-8-chloro-5-methyl-5,6-dihydro-4H-2,3,5,10b-tetraaza-benzo[e]azulene]	1.58
CC(C)(C)OC(=O)N1Cc2cc(Cl)ccc2-n2c(nnc2[C@H]2CC[C@H](OC3CCCC3)CC2)C1 (stereo in doubt) [Example 36, trans-8-Chloro-1-(4-cyclopentyloxy-cyclohexyl)-4H,6H-2,3,5,10b-tetraaza-benzo[e]azulene-5-carboxylic acid tert-butyl ester]	3.24
COC[C@H](C)O[C@H]1CC[C@H](c2nnc3n2-c2ccc(Cl)cc2CN(C)C3)CC1 (stereo in doubt) [Example 48, (+)-trans-8-Chloro-1-[4-(2-methoxy-1-methyl-ethoxy)-cyclohexyl]-5-methyl-5,6-dihydro-4H-2,3,5,10b-tetraaza-benzo[e]azulene]	47.9
COC[C@@H](C)O[C@H]1CC[C@H](c2nnc3n2-c2ccc(Cl)cc2CN(C)C3)CC1 (stereo in doubt) [Example 49, (−)-trans-8-Chloro-1-[4-(2-methoxy-1-methyl-ethoxy)-cyclohexyl]-5-methyl-5,6-dihydro-4H-2,3,5,10b-tetraaza-benzo[e]azulene]	5.5
CO[C@H]1CC[C@@H](c2nnc3n2-c2ccc(Cl)cc2CN(C)C3)CC1 [Example 1, cis-8-Chloro-1-(4-methoxy-cyclohexyl)-5-methyl-5,6-dihydro-4H-2,3,5,10b-tetraaza-benzo[e]azulene]	93.3
CCO[C@H]1CC[C@H](c2nnc3n2-c2ccc(Cl)cc2CN(C(=O)OC(C)(C)C)C3)CC1 [Example 2, trans-8-Chloro-1-(4-ethoxy-cyclohexyl)-4H,6H-2,3,5,10b-tetraaza-benzo[e]azulene-5-carboxylic acid tert-butyl ester]	2.4
CCO[C@H]1CC[C@H](c2nnc3n2-c2ccc(Cl)cc2CNC3)CC1 [Example 3, trans-8-Chloro-1-(4-ethoxy-cyclohexyl)-5,6-dihydro-4H-2,3,5,10b-tetraaza-benzo[e]azulene hydrochloride]	63.1
CCO[C@H]1CC[C@H](c2nnc3n2-c2ccc(Cl)cc2CN(C)C3)CC1 [Example 4, trans-8-Chloro-1-(4-ethoxy-cyclohexyl)-5-methyl-5,6-dihydro-4H-2,3,5,10b-tetraaza-benzo[e]azulene]	6.76
CCO[C@H]1CC[C@@H](c2nnc3n2-c2ccc(Cl)cc2CN(C(=O)OC(C)(C)C)C3)CC1 [Example 5, cis-8-Chloro-1-(4-ethoxy-cyclohexyl)-4H,6H-2,3,5,10b-tetraaza-benzo[e]azulene-5-carboxylic acid tert-butyl ester]	14.1
CCO[C@H]1CC[C@@H](c2nnc3n2-c2ccc(Cl)cc2CNC3)CC1 [Example 6, cis-8-Chloro-1-(4-ethoxy-cyclohexyl)-5,6-dihydro-4H-2,3,5,10b-tetraaza-benzo[e]azulene hydrochloride]	891
CCO[C@H]1CC[C@@H](c2nnc3n2-c2ccc(Cl)cc2CN(C)C3)CC1 [Example 7, cis-8-Chloro-1-(4-ethoxy-cyclohexyl)-5-methyl-5,6-dihydro-4H-2,3,5,10b-tetraaza-benzo[e]azulene]	55
CC(C)O[C@H]1CC[C@H](c2nnc3n2-c2ccc(Cl)cc2CN(C(=O)OC(C)(C)C)C3)CC1 [Example 8, trans-8-Chloro-1-(4-isopropoxy-cyclohexyl)-4H,6H-2,3,5,10b-tetraaza-benzo[e]azulene-5-carboxylic acid tert-butyl ester]	1.29
CC(C)O[C@H]1CC[C@H](c2nnc3n2-c2ccc(Cl)cc2CNC3)CC1 [Example 9, trans-8-Chloro-1-(4-isopropoxy-cyclohexyl)-5,6-dihydro-4H-2,3,5,10b-tetraaza-benzo[e]azulene hydrochloride]	17.4
